Experimental data published in patent US8741803B2, “Pesticidal composition and method for controlling pest” (Kumiai Chemical Industry Co., Ltd., priority 2007, dated 2014).

Key:
[1] = system: cotton aphid; assay: Test Example 3: insecticidal test on cotton aphid (compound 6, pyridalyl and their mixture; root zone irrigation of cucumber seedlings, 3 days); type: in vivo, Aphis qossypii; conditions: Pyridalyl alone, 100.0 ppm, 25° C.
Description: (§1) [formula] wherein X, Y and E are the following values.
(§2) When the practical miticidal value of the insecticide exceeds E (predictive value), a synergistic effect is obtained.
Each of the compound 6, pyridalyl, and a mixture of the compound 6 and pyridalyl was formulated into a wettable powder in accordance with Formulation Example 2. The respective formulations were diluted with water to an active ingredient concentration as identified in Table 17, and to the respective solutions, a spreader (KUMITEN manufactured by Kumiai Chemical Industry Co., Ltd.) was added at a concentration of 0.05% of the entire amount. The root zone of cucumber seedlings which had been inoculated with larvae of cotton aphid were irrigated with 5 mL of each of the solutions. The treated seedlings were placed in a thermostatic chamber at 25° C. for 3 days, and the survivors were counted for calculation of the insecticidal degree by Equation 3. The test was carried out by two series system. The predictive value in the Table was calculated based on the Colby formula of Equation 1.

[2] = system: two-spotted spider mites; assay: Test Example 2: miticidal test on two-spotted spider mites (compound 6, tebufenozide and their mixture; soybean seedling dipping, 13 days); type: in vivo, Tetranychus urticae; conditions: Tebufenozide alone, 100.0 ppm, 25° C.
Excerpt: as §1
(§3) X: The miticidal value of the component A at a predetermined concentration.
(§4) Y: The miticidal value of the component B at a predetermined concentration.
E: Predictive value (theoretical expected value) of the component A and the component B in combination at the respective predetermined concentrations.
as §2
(§5) Each of the compound 6, tebufenozide, and a mixture of the compound 6 and tebufenozide was formulated into a wettable powder in accordance with Formulation Example 2. The respective formulations were diluted with water to an active ingredient concentration as identified in Table 16, and to the respective solutions, a spreader (KUMITEN manufactured by Kumiai Chemical Industry Co., Ltd.) was added at a concentration of 0.05% of the entire amount. Soybean seedlings which had been inoculated with imago two-spotted spider mites were dipped in each of the resulting solutions and dried in air. The seedlings were placed in a thermostatic chamber at 25° C. for 13 days, and the mite survivors were counted for calculation of the miticidal value by using Equation 2. The test was carried out by one series system. The theoretical value in the Table was calculated based on the Colby formula of Equation 1.

[3] = system: two-spotted spider mites; assay: Test Example 1: miticidal test on two-spotted spider mites (compound 6, flubendiamide and their mixture; soybean seedling dipping, 13 days); type: in vivo, Tetranychus urticae; conditions: Flubendiamide alone, 50.0 ppm, 25° C.
Description: as §5, with “compound 6, flubendiamide, and a” for “compound 6, tebufenozide, and a”, “6 and flubendiamide was formulated” for “6 and tebufenozide was formulated”, “in Table 15, and to” for “in Table 16, and to”, “system. The predictive value in” for “system. The theoretical value in”, “Colby formula (S. R. Colby (Weeds 15 (1967), 20-22) of Equation” for “Colby formula of Equation”
as §1, §3, §4
E: Predictive value (theoretical expected value) of the component A and the component B in combination at the respective predetermined concentrations. […]

FC(F)(F)c1ccc(OCCCOc2c(Cl)cc(OCC=C(Cl)Cl)cc2Cl)nc1 [pyridalyl] showed an Insecticidal degree [1] of 10.

For CCc1ccc(C(=O)NN(C(=O)c2cc(C)cc(C)c2)C(C)(C)C)cc1 [tebufenozide], the Miticidal value [2] was 3.

Molecule Cc1cc(C(F)(C(F)(F)F)C(F)(F)F)ccc1NC(=O)c1cccc(I)c1C(=O)NC(C)(C)CS(C)(=O)=O [flubendiamide] has a Miticidal value [3] of 13.
